The values that follow come from ChEMBL document CHEMBL1201862, “PubChem BioAssay data set” (2004).

Test systems include 786-0; A498; A549; CCRF-CEM; HCT-116; HCT-15; HOP-62; MCF7; MDA-MB-231; NCI-H522; NCI/ADR-RES; SF-268; SK-MEL-28; SN12C; SNB-75; SW-620; U-251; UACC-257; M14; SF-539.
What all share (assay): NCI-60 cell line screen, 48 h

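Each compound was tested at five concentrations against cells in 96-well plates for 48 hours. GI50 is the concentration that inhibits growth by half.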 Calls of active or inactive are those of the source. Rule as the data show it: active = GI50 up to about 1.1 µM and inactive = higher. Where only a bound is given, the exact number is not on record here.

Take `CCOC(=O)C1C(=O)CC(C)(O)C(C(=O)OCC)C1c1ccc(N(C)C)cc1` (configuration not stated): the GI50 was > 100 µM (inactive) in the experiment on 786-0; > 100 µM (inactive) in the experiment on A498; > 100 µM (inactive) in the experiment on A549; > 100 µM (inactive) with CCRF-CEM; > 100 µM (inactive) in the experiment with HCT-116; more than 100 µM in the experiment on HCT-15. For the same compound, the GI50 in the experiment with HOP-62, with MCF7, in the experiment on MDA-MB-231, in the experiment on NCI-H522, in the experiment with NCI/ADR-RES and in the experiment on SF-268 was > 100 µM (inactive) throughout. The GI50 in the experiment with SK-MEL-28, in the experiment on SN12C, with SNB-75, in the experiment on SW-620, in the experiment with U-251 and in the experiment with UACC-257 was > 100 µM (inactive) each time.
Consider `CC(C)NCCC(O)c1cc2ccccc2o1` (configuration not stated), for which the GI50 was > 100 µM (inactive) in the experiment on 786-0; > 100 µM (inactive) in the experiment with A498; > 100 µM (inactive) in the experiment on A549; > 100 µM (inactive) in the experiment with HCT-116; more than 100 µM in the experiment with HCT-15; > 100 µM (inactive) with HOP-62. Besides, the GI50 with M14, with MCF7, with MDA-MB-231, in the experiment with NCI-H522, with NCI/ADR-RES and with SF-268 was > 100 µM (inactive) in each case. Also, the GI50 in the experiment with SF-539 is > 100 µM (inactive); in the experiment with SK-MEL-28, > 100 µM (inactive); in the experiment on SN12C, 30.1 µM (inactive); with SNB-75 it was 7.67 µM (inactive); in the experiment with SW-620, > 100 µM (inactive); with U-251 it was > 100 µM (inactive). The GI50 with UACC-257 was > 100 µM (inactive).
For `C=C(C)CN(CC#N)CC(=C)C`, the GI50 is > 100 µM (inactive) in the experiment on 786-0; > 100 µM (inactive) in the experiment on A498; > 100 µM (inactive) in the experiment on A549; > 100 µM (inactive) in the experiment on CCRF-CEM; > 100 µM (inactive) with HCT-116; more than 100 µM in the experiment with HCT-15. Further, the GI50 with HOP-62, in the experiment with M14, in the experiment with MCF7, with MDA-MB-231, with NCI-H522 and in the experiment with NCI/ADR-RES was > 100 µM (inactive) each time. The GI50 in the experiment on SF-268, in the experiment with SK-MEL-28, in the experiment on SN12C, with SNB-75, in the experiment with SW-620 and with U-251 was > 100 µM (inactive) in each case. In the experiment on UACC-257, the GI50 was > 100 µM (inactive).
With `COc1cccc(OCC(=N/NC(=O)c2ccncc2)/N=C/c2cccnc2)c1`, the GI50 with 786-0 is > 100 µM (inactive); in the experiment with A498, > 100 µM (inactive); with A549 it was > 100 µM (inactive); in the experiment on CCRF-CEM, > 100 µM (inactive); in the experiment on HCT-116, > 100 µM (inactive); in the experiment on HCT-15, more than 100 µM. The GI50 with HOP-62, in the experiment on M14, in the experiment with MCF7, with MDA-MB-231, in the experiment on NCI-H522 and with NCI/ADR-RES was > 100 µM (inactive) in each case. The GI50 in the experiment on SF-268, in the experiment on SF-539, with SK-MEL-28, in the experiment on SNB-75, in the experiment with SW-620 and in the experiment on U-251 was > 100 µM (inactive) in each case. Further, the GI50 with UACC-257 is > 100 µM (inactive).
For `C[C@]12CC[C@@H]3c4ccc(O)cc4CC[C@H]3[C@@H]1CC[C@@H]2OC(=O)CCc1ccccc1`, the GI50 in the experiment with 786-0 is 34 µM (inactive); in the experiment on A498, 17.4 µM (inactive); in the experiment with A549 it was 22.3 µM (inactive); with CCRF-CEM it was 22.5 µM (inactive); in the experiment with HCT-116, 20.3 µM (inactive); in the experiment with HCT-15, 14.4 µM. Also, the GI50 in the experiment on HOP-62 is 22.1 µM (inactive); in the experiment with M14, 17.6 µM (inactive); in the experiment on MCF7, 17.5 µM (inactive); in the experiment on MDA-MB-231 it was 17.1 µM (inactive); in the experiment with NCI-H522 it was 15.3 µM (inactive); in the experiment on NCI/ADR-RES it was 16.6 µM (inactive). Further, the GI50 is 17.8 µM (inactive) with SF-268; 20.1 µM (inactive) with SK-MEL-28; 22.9 µM (inactive) in the experiment with SN12C; 15.1 µM (inactive) with SNB-75; 23.3 µM (inactive) in the experiment with SW-620; 18.7 µM (inactive) with U-251. In the experiment on UACC-257, the GI50 is 17.9 µM (inactive).
Take `O=C(Nc1nc(C23CC4CC(CC(C4)C2)C3)cs1)c1c(O)c2ccccc2[nH]c1=O`: the GI50 was > 100 µM (inactive) in the experiment with 786-0; > 100 µM (inactive) in the experiment with A498; > 100 µM (inactive) with A549; > 100 µM (inactive) with CCRF-CEM; > 100 µM (inactive) in the experiment on HCT-116; more than 100 µM with HCT-15. In addition, the GI50 with HOP-62 was > 100 µM (inactive); in the experiment with MCF7, > 100 µM (inactive); in the experiment with MDA-MB-231, 78.9 µM (inactive); in the experiment on NCI-H522 it was > 100 µM (inactive); with NCI/ADR-RES it was > 100 µM (inactive); in the experiment with SF-268, 23.3 µM (inactive). Moreover, the GI50 with SF-539 is > 100 µM (inactive); in the experiment with SK-MEL-28 it was > 100 µM (inactive); with SN12C, > 100 µM (inactive); in the experiment with SNB-75 it was > 10 µM (inactive); in the experiment on SW-620 it was > 100 µM (inactive); with U-251, > 100 µM (inactive). Besides, in the experiment on UACC-257, the GI50 was > 100 µM (inactive).
On to `Cc1nc2c(=S)n(C)ncc2[nH]1`, for which the GI50 in the experiment with 786-0 is > 100 µM (inactive); with A498, > 100 µM (inactive); with A549, > 100 µM (inactive); with CCRF-CEM, > 100 µM (inactive); in the experiment with HCT-116, > 100 µM (inactive); in the experiment with HCT-15, more than 100 µM. Moreover, the GI50 is > 100 µM (inactive) with HOP-62; > 100 µM (inactive) with M14; > 100 µM (inactive) in the experiment on MCF7; > 100 µM (inactive) with MDA-MB-231; 34 µM (inactive) in the experiment with NCI-H522; > 100 µM (inactive) with NCI/ADR-RES. In addition, the GI50 in the experiment with SF-539, with SK-MEL-28, in the experiment on SN12C, with SNB-75, in the experiment with SW-620 and with U-251 was > 100 µM (inactive) each time. The GI50 in the experiment on UACC-257 is > 100 µM (inactive).
Take `C[N+](C)(C)CCN[N+]1(C)CCCc2ccccc21` (configuration not stated): the GI50 was 33.3 µM (inactive) in the experiment on 786-0; 17.7 µM (inactive) in the experiment with A498; > 100 µM (inactive) in the experiment with A549; 52 µM (inactive) in the experiment with HCT-116; more than 100 µM with HCT-15; > 100 µM (inactive) with HOP-62. Also, the GI50 was > 100 µM (inactive) with M14; > 100 µM (inactive) in the experiment on MCF7; > 100 µM (inactive) with MDA-MB-231; 18.5 µM (inactive) in the experiment on NCI-H522; > 100 µM (inactive) with NCI/ADR-RES; > 100 µM (inactive) in the experiment on SF-268. Further, the GI50 in the experiment with SF-539 is 4.92 µM (inactive); with SK-MEL-28, > 100 µM (inactive); with SN12C, > 100 µM (inactive); in the experiment on SNB-75 it was > 100 µM (inactive); in the experiment on SW-620 it was 38.5 µM (inactive); in the experiment with U-251, 52.1 µM (inactive). Further, the GI50 in the experiment on UACC-257 was > 100 µM (inactive).
Turning to `COC1(OC)CC(CO)(CNc2nc(N)nc(Cl)c2/C=N\O)C1`, the GI50 was 44.2 µM (inactive) with 786-0; 18.5 µM (inactive) in the experiment with A498; 59.7 µM (inactive) in the experiment with A549; 47.1 µM (inactive) in the experiment with CCRF-CEM; 50.4 µM (inactive) with HCT-116; 75.5 µM with HCT-15. The GI50 with HOP-62 is 23.2 µM (inactive); in the experiment on MCF7, 24.1 µM (inactive); in the experiment on MDA-MB-231, 72.9 µM (inactive); in the experiment with NCI-H522, 6.67 µM (inactive); in the experiment with NCI/ADR-RES, 46 µM (inactive); in the experiment with SF-268, > 100 µM (inactive). Moreover, the GI50 in the experiment with SF-539 is 38.8 µM (inactive); in the experiment with SK-MEL-28, 48.9 µM (inactive); in the experiment on SN12C, 87.7 µM (inactive); in the experiment with SNB-75 it was 48.8 µM (inactive); in the experiment on SW-620, > 100 µM (inactive); in the experiment on U-251 it was 43.7 µM (inactive). In addition, the GI50 with UACC-257 is 27.7 µM (inactive).
For `CCC1(O)C(=O)OCc2c1cc1n(c2=O)Cc2cc3cc(N)ccc3nc2-1` (configuration not stated), the GI50 with 786-0 is < 0.01 µM (active); in the experiment with A498 it was 0.125 µM (active); with A549, 0.0103 µM (active); with CCRF-CEM, < 0.01 µM (active); in the experiment with HCT-116 it was < 0.01 µM (active); in the experiment with HCT-15, 0.0721 µM. In addition, the GI50 with HOP-62 was < 0.01 µM (active); in the experiment with M14 it was < 0.01 µM (active); with MCF7 it was < 0.01 µM (active); in the experiment on MDA-MB-231, 0.516 µM (active); with NCI-H522, < 0.01 µM (active); with NCI/ADR-RES, < 0.01 µM (active). Besides, the GI50 in the experiment on SF-268 is < 0.01 µM (active); in the experiment with SF-539, < 0.01 µM (active); with SN12C it was < 0.01 µM (active); in the experiment on SNB-75, < 0.01 µM (active); with SW-620 it was 0.0219 µM (active); in the experiment on U-251 it was < 0.01 µM (active).
Turning to `COc1ncnc2c1cnn2Cc1cn(COCC(O)CO)nn1` (configuration not stated), the GI50 in the experiment with 786-0 was > 100 µM (inactive); in the experiment on A498 it was > 100 µM (inactive); in the experiment with A549, > 100 µM (inactive); in the experiment on CCRF-CEM, > 100 µM (inactive); in the experiment on HCT-116, > 100 µM (inactive); with HCT-15 it was more than 100 µM. In addition, the GI50 in the experiment on HOP-62 was > 100 µM (inactive); in the experiment with M14, > 100 µM (inactive); in the experiment with MCF7, > 100 µM (inactive); with MDA-MB-231, > 100 µM (inactive); with NCI-H522, 10.8 µM (inactive); in the experiment on NCI/ADR-RES it was > 100 µM (inactive). For the same compound, the GI50 in the experiment with SF-268 was 16.3 µM (inactive); with SF-539, > 100 µM (inactive); in the experiment with SK-MEL-28, > 100 µM (inactive); with SN12C, > 100 µM (inactive); in the experiment on SW-620, > 100 µM (inactive); with U-251, > 100 µM (inactive). Moreover, in the experiment with UACC-257, the GI50 was > 100 µM (inactive).
